Test results taken from the supplement of paper PMC10307832.

What follows are cell lines tested with N[C@@H]1CCCN(c2c(/C=C3\SC(=O)NC3=O)cccc2-c2ccccc2)C1 [AZD1208] + O=C(c1cc(Cc2n[nH]c(=O)c3ccccc23)ccc1F)N1CCN(C(=O)C2CC2)CC1 [Olaparib] (partner 8 µM) (assay: relative viability (nuclei count vs DMSO), 5 days (fraction); higher = more cells survive). Settings: first compound 2.53 µM.
Method in brief: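 One day after seeding in 1536-well plates, lung cancer cell lines were dosed by pin tool. Dosing was either single-drug or a fixed anchor-drug dose plus five library-drug doses (not always all listed) in √10 steps. After 5 days, nuclei were stained in one fix-and-stain step and counted on 4× images, and relative viability is the nuclei count of treated wells over that of vehicle wells, given as the median of duplicate plates.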

Cell Line | relative viability
NCI-H520 | 0.287
NCI-H2405 | 0.813
SW 1573 | 0.445
NCI-H1395 | 0.421
201T | 0.868
NCI-H1915 | 0.218
HCC-827 | 0.641
LXF-289 | 1.03
NCI-H2347 | 0.541
NCI-H1299 | 0.957

Same assay, conditions: first compound 8 µM

Cell Line | relative viability
NCI-H522 | 0.568
NCI-H838 | 0.753
NCI-H1650 | 0.796
EBC-1 | 0.624
NCI-H1703 | 0.337
NCI-H2009 | 0.647
NCI-H1993 | 0.736
PC-14 | 0.257
LCLC-103H | 0.786
NCI-H596 | 0.564
NCI-H2228 | 0.673
EMC-BAC-2 | 0.448
NCI-H2087 | 0.435
Calu-6 | 0.639
HCC-366 | 0.281
NCI-H1666 | 0.768
NCI-H647 | 0.285
LK-2 | 0.353
NCI-H2126 | 0.828
NCI-H2342 | 0.376
SK-MES-1 | 0.577
H3255 | 0.569
COR-L23 | 0.321
COR-L 105 | 0.594
IA-LM | 0.904
LOU-NH91 | 0.883
ChaGo-K-1 | 0.434
NCI-H2170 | 0.385

Cell Line | relative viability
NCI-H3122 | 0.691
HOP-62 | 0.37
HCC-44 | 0.919
A549 | 0.235
SW 900 | 0.668
LU99A | 0.246
BEN | 0.59
HARA | 0.895
NCI-H1648 | 0.939
HCC-78 | 0.754
NCI-H441 | 0.366
LCLC-97TM1 | 0.252
NCI-H2023 | 0.366
A-427 | 0.661
NCI-H460 | 0.443
NCI-H727 | 0.734
NCI-H1734 | 0.449
NCI-H520 | 0.252
NCI-H2405 | 0.891
SW 1573 | 0.406
NCI-H1395 | 0.381
201T | 0.909
NCI-H1915 | 0.238
HCC-827 | 0.338
LXF-289 | 1.01
NCI-H2347 | 0.538
NCI-H1299 | 0.987
